Source: EP4813403A1, “USE OF GLP-1R/GIPR DOUBLE-TARGET AGONIST IN PREPARING ANIMAL DRUG” (Hangzhou Zhongmeihuadong Pharmaceutical Co., Ltd., priority 2023, dated 2025)

What was measured:
Assay type in all cases: cell-based
Conditions in all cases: ratio of EC50 value of other species to human EC50 value
rat GLP-1R = biological target: T1, rat GLP-1R (Rattus norvegicus, UniProt P32301); experiment: Agonistic activity on GLP-1R of different species (LANCE Ultra cAMP assay): rat
T1 construct: expressed in transfected cells
T1 sequence (P32301 22-463): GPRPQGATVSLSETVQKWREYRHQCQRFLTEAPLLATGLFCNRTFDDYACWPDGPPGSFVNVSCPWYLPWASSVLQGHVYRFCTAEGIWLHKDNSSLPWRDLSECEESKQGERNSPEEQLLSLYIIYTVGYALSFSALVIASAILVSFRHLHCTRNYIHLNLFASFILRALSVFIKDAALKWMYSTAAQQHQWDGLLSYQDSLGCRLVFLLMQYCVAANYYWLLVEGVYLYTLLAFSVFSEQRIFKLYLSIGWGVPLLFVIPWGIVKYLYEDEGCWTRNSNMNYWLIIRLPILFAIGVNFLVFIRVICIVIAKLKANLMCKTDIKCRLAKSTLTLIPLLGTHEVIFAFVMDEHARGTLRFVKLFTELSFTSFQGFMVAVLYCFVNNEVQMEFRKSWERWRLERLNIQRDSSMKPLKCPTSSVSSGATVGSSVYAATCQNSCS

monkey GLP-1R = experiment: Agonistic activity on GLP-1R of different species (LANCE Ultra cAMP assay): monkey
Protocol: (§1) The in vitro agonistic activity of the compound of the present invention on GLP-1R was measured in cells stably expressing human, dog, mouse, rat, rabbit, and monkey GLP-1R (human GLP-1R-HEK, dog GLP-1R-HEK, mouse GLP-1R-HEK, rat GLP-1R- in HEK, rabbit GLP-1R-CHO, monkey GLP-1R-HEK cells). Human GLP-1R-HEK, dog GLP-1R-HEK, mouse GLP-1R-HEK, rat GLP-1R-HEK, rabbit GLP-1R-CHO, and monkey GLP-1R-HEK cells were resuspended in 1×Casein Stimulation Buffer (HBSS, 5 mM HEPES, 0.5 mM IBMX, 0.1% casein, pH7.4), and seeded into a 384-well cell culture plate at 9 µL/well (cell numbers being 1000, 1000, 1000, 1500, 1000, 1000 cells/well, respectively). 1 µL of 1×Casein Stimulation Buffer containing 10× compound was added to the above-mentioned 384-well cell culture plate. The plate was incubated at 37 °C for 30 minutes. After the incubation was completed, 5 µL of Eu-cAMP working solution and 5 µL of Ulight^TM-cAMP working solution were added sequentially, centrifuged and then incubated at room temperature for 1 hour. The readings at 665 nm and 620 nm were determined with a 330 nm excitation light on a microplate reader. The 665 nm/620 nm reading ratio was calculated. […] GraphPad was used to perform nonlinear regression according to the response percentage and the concentration of the compound added to obtain the EC50 value for each compound.

mouse GIPR = biological target: T2, mouse GIPR (Mus musculus, UniProt Q0P543); experiment: Agonistic activity on GIPR of different species (LANCE Ultra cAMP assay): mouse
T2 construct: expressed in transfected cells; host or cells: CHO-K1 (transient)
T2 sequence (Q0P543 19-460): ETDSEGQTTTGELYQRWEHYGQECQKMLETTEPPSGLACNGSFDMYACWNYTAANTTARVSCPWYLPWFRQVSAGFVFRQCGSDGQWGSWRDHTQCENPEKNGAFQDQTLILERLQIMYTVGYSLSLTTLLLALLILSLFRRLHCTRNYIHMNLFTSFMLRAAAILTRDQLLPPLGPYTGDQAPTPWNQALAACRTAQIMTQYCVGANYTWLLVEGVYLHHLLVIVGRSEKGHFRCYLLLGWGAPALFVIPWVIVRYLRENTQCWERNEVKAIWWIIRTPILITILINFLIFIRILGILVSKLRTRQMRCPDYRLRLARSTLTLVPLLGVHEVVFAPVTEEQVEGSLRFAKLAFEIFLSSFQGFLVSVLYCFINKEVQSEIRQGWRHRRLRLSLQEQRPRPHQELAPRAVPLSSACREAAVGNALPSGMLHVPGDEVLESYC

rabbit GLP-1R = biological target: T3, rabbit GLP-1R (Oryctolagus cuniculus, UniProt G1SGD4); experiment: Agonistic activity on GLP-1R of different species (LANCE Ultra cAMP assay): rabbit
T3 construct: expressed in transfected cells
T3 sequence (G1SGD4 24-462): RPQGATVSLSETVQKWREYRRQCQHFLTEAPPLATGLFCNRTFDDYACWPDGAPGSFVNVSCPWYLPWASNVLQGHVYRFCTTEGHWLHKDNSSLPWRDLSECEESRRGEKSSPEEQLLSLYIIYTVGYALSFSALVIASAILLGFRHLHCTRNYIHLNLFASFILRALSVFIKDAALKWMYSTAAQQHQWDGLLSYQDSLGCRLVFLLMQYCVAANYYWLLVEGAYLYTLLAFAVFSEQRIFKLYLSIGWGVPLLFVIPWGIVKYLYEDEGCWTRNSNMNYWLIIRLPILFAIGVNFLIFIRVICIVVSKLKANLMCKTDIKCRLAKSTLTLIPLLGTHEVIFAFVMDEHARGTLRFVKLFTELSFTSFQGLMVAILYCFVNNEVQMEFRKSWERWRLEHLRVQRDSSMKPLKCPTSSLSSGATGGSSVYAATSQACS
Protocol: as §1

CC[C@H](C)[C@H](NC(=O)C(C)(C)NC(=O)[C@H](Cc1ccc(O)cc1)NC(=O)[C@H](CC(=O)O)NC(=O)[C@H](CO)NC(=O)[C@@H](NC(=O)C(C)(Cc1ccccc1)NC(=O)[C@@H](NC(=O)CNC(=O)[C@H](CCC(=O)O)NC(=O)C(C)(C)NC(=O)[C@@H](N)Cc1ccc(O)cc1)[C@@H](C)O)[C@@H](C)O)C(=O)NC(C)(C)C(=O)N[C@@H](CC(C)C)C(=O)N[C@@H](CC(=O)O)C(=O)N[C@@H](CCCCN)C(=O)N[C@@H](CCC(N)=O)C(=O)N[C@@H](C)C(=O)N[C@@H](CCC(N)=O)C(=O)N[C@@H](C)C(=O)N[C@@H](CCC(=O)O)C(=O)N[C@@H](Cc1ccccc1)C(=O)N[C@H](C(=O)N[C@@H](CCCCNC(=O)COCCOCCNC(=O)COCCOCCNC(=O)COCCOCCNC(=O)CC[C@H](NC(=O)CCCCCCCCCCCCCCCCCCCCC(=O)O)C(=O)O)C(=O)N[C@@H](Cc1c[nH]c2ccccc12)C(=O)N[C@@H](CC(C)C)C(=O)N[C@@H](CC(C)C)C(=O)N[C@@H](CCCCN)C(=O)NCC(=O)NCC(=O)N1CCC[C@H]1C(=O)N[C@@H](CO)C(=O)N[C@@H](CO)C(=O)NCC(=O)N[C@@H](C)C(=O)N1CCC[C@H]1C(=O)N1CCC[C@H]1C(=O)N1CCC[C@H]1C(=O)N[C@@H](CO)C(=O)N[C@@H](CCCCN)C(N)=O)C(C)C (stereo partly shown) [Compound P016]
GLP-1R EC50 ratio (rat GLP-1R): 1.59 | GLP-1R EC50 ratio (monkey GLP-1R): 2.66 | GIPR EC50 ratio (mouse GIPR): 12.49 | GLP-1R EC50 ratio (rabbit GLP-1R): 1.05
